Laboratory results as given in US4450170A, “Treatment of diarrhoea with 2-aminoimidazoline derivatives” (Beecham Group Limited, priority 1980, dated 1984).
Where “and” joins values, the source holds several entries; their conditions need not be identical. Equal values may be shown once. Where a name gives a salt, the structure may show the parent alone.

What was measured:
[1] = test system: E. coli P16; experiment: Inhibition of Diarrhoea Resulting from E. coli Infection (piglets); type: in vivo, colostrum deprived piglets; conditions: Group B, Neomycin 30 mg/Kg po
Description: 2-4 day old piglets were dosed with the compound orally 45 mins prior to oral challenge with 25 ml of culture filtrate prepared from an enteropathogenic strain of E. coli. Control animals received drug vehicle 45 mins prior to challenge with a similar volume of material. […] After 6 hours observation some piglets were given a second dose of drug (or placebo) and observations were continued for a further six hours. The percentage inhibition in treated animals was determined as: [formula]
Colostrum deprived piglets were infected with 5 ml of an overnight culture containing 10^8 -10^9 viable E. coli P16/ml. The following day, piglets were matched by weight and scour score and then treated and observed for 6 hours in a similar manner to toxin challenged piglets, as described above.

[2] = test system: fluid secretion caused by the enterotoxin(s) present in culture filtrate from an enteropathogenic strain of E. coli; experiment: animal or person; type: in vivo, infant mice; conditions: for activity in the reduction of fluid secretion (in words): mouse, in vivo
[3] = test system: diarrhoea induced by culture filtrate from an enteropathogenic strain of E. coli; parameters: species or system 2-4 day old piglets; conditions: in vivo, po

Compound | inhibition in vivo at 50 mg/kg ([2]; Mus musculus, po) | inhibition in vivo at 200 mg/kg ([2]; Mus musculus, po) | inhibition in vivo at 10 mg/kg ([2]; Mus musculus, po) | other results
Neomycin | – | – | – | % inhibition of scour [1]: 16%; Mean Scour Score ± SEM ([1]; placebo 2.9 ± 0.1): 2.4 ± 0.2; Mortality over 7 days ([1]; placebo 25%): 0%
NCc1cc(Cl)c(N=C2NCCN2)c(Cl)c1 [Example 14, 2-(4-aminomethyl-2,6-dichlorophenylimino)imidazolidine] | 38% | 39% | – | –
Clc1cc(N=C2NCCN2)cc(Cl)c1NC1=NCCN1 [Example 16, 2-(2,6-dichloro-4-imidazolino-2-iminophenylimino)imidazolidine] | – | – | – | inhibition in vivo at 100 mg/kg ([2]; Mus musculus, po): 29%; inhibition in vivo at 400 mg/kg ([2]; Mus musculus, po): 41%
CN(C1=NCCN1)c1c(Cl)cc(N)cc1Cl [R5 H, R6 CH3, Ra p-NH2, Rb o-Cl, R11 Cl] | 62% | 72% | 37% | –
CCN(CC)Cc1cc(Cl)c(N=C2NCCN2)c(Cl)c1 [Example 15, 2-(2,6-dichloro-4-diethylaminomethylphenylimino)imidazolidine] | 28% | 37% | – | inhibition in vivo at 500 mg/kg ([2]; Mus musculus, po): 42%
CCNc1cc(Cl)c(NC2=NCCN2)c(Cl)c1 [R5 H, R6 H, Ra p-NHEt, Rb o-Cl, R11 Cl] | 79% | 97% | 59% | –
Cc1cc(N)cc(C)c1N=C1NCCN1 [Example 13, 2-(4-amino-2,6-dimethylphenylimino)imidazolidine] | 54% | 69% | 66% | % inhibition of scour [3]: 78% and 69% and 62%; Mean Scour Score ± SEM, drug treated [3]: 0.5 ± 0.2 and 0.6 ± 0.3 and 0.6 ± 0.2
Nc1cc(Cl)c(NC2=NCCN2)c(Cl)c1 [p-Amino clonidine dihydrochloride, p-amino Clonidine dihydrochloride] | 78% | – | 59% | ED50 ([2]; Mus musculus, po, read-out: calculated ED50): 0.25 mg/kg; activity in the reduction of fluid secretion (in words) [2]: high level of activity; % inhibition of scour [3]: 79%; Mean Scour Score ± SEM, drug treated [3]: 0.4 ± 0.2
CNC(=Nc1cc(Cl)c(NC2=NCCN2)c(Cl)c1)NC [Example 17, 2-[2,6-dichloro-4-(1,3-dimethylguanidino)phenylimino]imidazolidine] | 37% | 53% | 33% | –
CN(C)C(=O)C(CCN1CCC(O)(c2ccc(Cl)cc2)CC1)(c1ccccc1)c1ccccc1 [Loperamide, reference compound] | – | – | – | activity in the reduction of fluid secretion (in words) [2]: considerably less active than the p-amino Clonidine dihydrochloride
Nc1cc(Br)c(NC2=NCCN2)c(Br)c1 [Example 12, 2-(4-amino-2,6-dibromophenylimino)imidazolidine] | 65% | 85% | 48% | –
